In one assay the test system is Puccinia recondite. Description: Curative activity against brown rust of wheat (greenhouse). It is filed as in vivo. The following applies: wheat seedlings, sprayed 1 day after inoculation, rated after 7 days. The method, then: (§1) The active compounds were separately or jointly prepared as a stock solution comprising 25 mg of active compound which was made up to 10 ml using a mixture of acetone and/or DMSO and the emulsifier Uniperol® EL (wetting agent having emulsifying and dispersing action based on ethoxylated alkylphenols) in a volume ratio of solvent/emulsifier of 99 to 1. The mixture was then made up with water to 100 ml. This stock solution was diluted with the solvent/emulsifier/water mixture described to the concentration of active compounds stated below.
(§2) The visually determined percentages of infected leaf areas were converted into efficacies in % of the untreated control:
(§3) The efficacy (E) is calculated as follows using Abbot's formula: […]
(§4) α corresponds to the fungal infection of the treated plants in % and β corresponds to the fungal infection of the untreated (control) plants in %
(§5) An efficacy of 0 means that the infection level of the treated plants corresponds to that of the untreated control plants; an efficacy of 100 means that the treated plants were not infected.
(§6) The expected efficacies of combinations of active compounds were determined using Colby's formula (Colby, S. R. “Calculating synergistic and antagonistic responses of herbicide combinations”, Weeds, 15, 20-22, 1967) and compared with the observed efficacies.
(§7) E=x+y−x·y/100 • E expected efficacy, expressed in % of the untreated control, when using the mixture of the active compounds A and B at the concentrations a and b • x efficacy, expressed in % of the untreated control, when using the active compound A at the concentration a • y efficacy, expressed in % of the untreated control, when using the active compound B at the concentration b
Leaves of wheat seedlings of the cultivar “Kanzler” cultivated in pots were inoculated with a spore suspension of brown rust (Puccinia recondite). The pots were then placed in a chamber with high atmospheric humidity (90 to 95%) and at 20 to 22° C. for 24 hours. During this time, the spores germinated and the germ tubes penetrated into leaf tissue. The next day, the infected plants were sprayed to runoff point with the solution of active compound described above having the active compound concentration stated below. After the spray coating had dried on, the test plants were cultivated in a greenhouse at temperatures between 20 and 22° C. and at 65 to 70% relative atmospheric humidity for 7 days. The extent of the rust fungus development on the leaves was then determined.

The test system of the next assay is Phytophthora infestans. It is filed as cell-based. Conditions: microtiter plate, 405 nm, day 7.
Assay [1] has as its system Botrytis cinerea. Description: Activity against the gray mold pathogen Botrytis cinerea in the microtiter test. Conditions: microtiter plate, day 7. It is filed as cell-based.
In assay [2] the test system is Botrytis cinerea. Description: Activity against Botrytis cinerea on bell peppers (greenhouse, protective spray). It is filed as in vivo. The following applies: bell pepper seedlings, sprayed 1 day before inoculation, rated after 5 days. As for the experimental part: as §1, §2, §3, §4, §5, §6, §7
Bell pepper seedlings of the cultivar “Neusiedler Ideal Elite” were, after 2-3 leaves were well developed, sprayed to runoff point with an aqueous suspension in the active compound concentration stated below. […] After 5 days, the extent of the fungal infection on the leaves could be determined visually in %.

Read-outs that look alike come from different tables or passages of the source.

This passage reports Observed activity results from patent publication US20080153701A1, “Fungicidal Mixtures” (BASF Aktiengesellschaft, priority 2004, published 2008).

With `CO/N=C(/C(=O)OC)c1ccccc1COc1ccccc1C` [kresoxim-methyl, methyl(E)-methoxyimino[α-(o-tolyloxy)-o-tolyl]acetate], the figures for the Observed activity in the assay on Puccinia recondite (4 ppm), in the assay with Puccinia recondite (63 ppm) and in the assay with Phytophthora infestans (1 ppm) were 0%, 18% and 36%, respectively.
Take `OC(Cc1ccccc1Cl)(Cn1nc[nH]c1=S)C1(Cl)CC1` (centres unmarked) [prothioconazole, 2-[2-(1-chlorocyclopropyl)-3-(2-chlorophenyl)-2-hydroxypropyl]-2,4-dihydro[1,2,4]triazol-3-thione]: the values for the Observed activity with Phytophthora infestans (8 ppm) and in the assay with Phytophthora infestans (32 ppm) were 0% and 46%, respectively.
In the case of `Cc1ccc(-c2c(Cl)nc(C#N)n2S(=O)(=O)N(C)C)cc1` [cyazofamid, 4-chloro-2-cyano-N,N-dimethyl-5-(4-methylphenyl)-1H-imidazole-1-sulfonamide], the Observed activity with Botrytis cinerea [1] (1 ppm, 405 nm) worked out at 0%; in the assay on Botrytis cinerea [1] (concentration not printed (second line for cyazofamid)) it was 0%.
`O=[N+]([O-])c1cc(C(F)(F)F)c(Cl)c([N+](=O)[O-])c1Nc1ncc(C(F)(F)F)cc1Cl` [fluazinam, 3-chloro-N-[3-chloro-2,6-dinitro-4-(trifluoromethyl)phenyl]-5-(trifluoromethyl)-2-pyridinamine]: the Observed activity with Phytophthora infestans (1 ppm) is 0%.
For the compound `O=C(Nc1ccccc1-c1ccc(Cl)cc1)c1cccnc1Cl` [boscalid, 2-chloro-N-(4′-chlorbiphenyl-2-yl)nicotinamide], the Observed activity in the assay with Puccinia recondite (16 ppm) was determined as 0%.
Compound “manganese-ethylenebis(dithiocarbamate) zinc complex [mancozeb]” registered an Observed activity in the assay on Botrytis cinerea [1] (4 ppm, 405 nm) of 9%.
As to `Fc1ccc([C@]2(Cn3cncn3)O[C@H]2c2ccccc2Cl)cc1` (racemic) [epoxiconazole, (2RS, 3SR)-1-[3-(2-chlorophenyl)-2,3-epoxy-2-(4-fluorophenyl)propyl]-1H-1,2,4-triazole], the Observed activity in the assay with Phytophthora infestans (32 ppm) came to 9%; in the assay on Phytophthora infestans (125 ppm) it was 31%; in the assay with Botrytis cinerea [1] (1 ppm, 405 nm) it was 2%.
In the case of `N#Cc1sc2c(=O)c3ccccc3c(=O)c=2sc1C#N` [dithianon, 5,10-dioxo-5,10-dihydronaphtho[2,3-b][1,4]dithiin-2,3-dicarbonitrile], the Observed activity with Botrytis cinerea [2] (63 ppm) was found to be 10%.
Consider `COC(=O)NCc1cc(/C(C)=N/OCc2cccc(C)c2)ccc1Cl` [I-B], for which the Observed activity with Puccinia recondite (16 ppm) came out at 6%; with Phytophthora infestans (0.25 ppm) it was 4%; in the assay with Phytophthora infestans (4 ppm), 5%; in the assay with Phytophthora infestans (8 ppm) it was 27%; in the assay with Phytophthora infestans (32 ppm), 35%; in the assay on Phytophthora infestans (125 ppm), 57%. The Observed activity in the assay on Botrytis cinerea [1] (0.25 ppm, 405 nm) was 2%; in the assay on Botrytis cinerea [1] (1 ppm, 405 nm) it was 40%; in the assay with Botrytis cinerea [1] (4 ppm, 405 nm), 67%; in the assay with Botrytis cinerea [2] (16 ppm), 10%; in the assay with Botrytis cinerea [2] (63 ppm), 20%.
Take `COc1ccc(C(=CC(=O)N2CCOCC2)c2ccc(Cl)cc2)cc1OC` [dimethomorph, 3-(4-chlorophenyl)-3-(3,4-dimethoxyphenyl)-1-morpholin-4-ylpropenone]: the Observed activity with Puccinia recondite (2 ppm) and in the assay on Puccinia recondite (8 ppm) was 0% each time.
As to `COCC(=O)N(c1c(C)cccc1C)C(C)C(=O)OC` (racemic) [metalaxyl, methyl N-(methoxyacetyl)-N-(2,6-xylyl)-DL-alaninate], in the assay on Puccinia recondite (16 ppm), the Observed activity came to 0%.
On to `COC(=O)N(OC)c1ccccc1COc1ccn(-c2ccc(Cl)cc2)n1` [pyraclostrobin, methyl N-{2-[1-(4-chlorophenyl)-1H-pyrazol-3-yloxymethyl]phenyl}(N-methoxy)carbamate], for which the Observed activity in the assay on Botrytis cinerea [1] (0.25 ppm, 405 nm) was determined as 20%.
